Data published in patent publication US9730447B2, “Fungicidal amides” (E I DU PONT DE NEMOURS AND COMPANY, priority 2013, dated 2017).
Marks after values point to notes of the source that are not given here.

Legend:
Type in all cases: in vivo
Botrytis cinerea = experiment: Test A: preventive spray on tomato seedlings, Botrytis cinerea (gray mold), visual disease rating; details: 96 h, 100 = 100% disease control, 0 = no control relative to controls, unmarked values
Description: (§1) General protocol for preparing test suspensions for Tests A-E: the test compounds were first dissolved in acetone in an amount equal to 3% of the final volume and then suspended at the desired concentration (in ppm) in acetone and purified water (50/50 mix by volume) containing 250 ppm of the surfactant Trem® 014 (polyhydric alcohol esters). The resulting test suspensions were then used in Tests A-E. Compounds were sprayed with either a 40 ppm or 10 ppm (*) test suspension to the point of run-off on the test plants which is the equivalent of a rate of 160 g ai/ha or 40 g ai/ha, respectively.
The test suspension was sprayed to the point of run-off on tomato seedlings. The following day the seedlings were inoculated with a spore suspension of Botrytis cinerea (the causal agent of gray mold on many crops) and incubated in a saturated atmosphere at 20° C. for 48 h, and moved to a growth chamber at 27° C. for 2 days, after which time visual disease ratings were made.
(§2) Results for Tests A-E are given in Table A. In the Table, a rating of 100 indicates 100% disease control and a rating of 0 indicates no disease control (relative to the controls). A dash (-) indicates no test results.

Septoria tritici = experiment: Test C: preventive spray on wheat seedlings, Septoria tritici (wheat leaf blotch), visual disease rating
Description: as §1
The test suspension was sprayed to the point of run-off on wheat seedlings. The following day the seedlings were inoculated with a spore suspension of Septoria tritici (the causal agent of wheat leaf blotch) and incubated in a saturated atmosphere at 24° C. for 48 h, and then moved to a growth chamber at 20° C. for 21 days, after which time visual disease ratings were made.
as §2

[1] = tested on: Puccinia recondite f. sp. tritici; experiment: Test D: preventive spray on wheat seedlings, Puccinia recondite f. sp. tritici (wheat leaf rust), visual disease rating
Description: as §1
The test suspension was sprayed to the point of run-off on wheat seedlings. The following day the seedlings were inoculated with a spore suspension of Puccinia recondite f. sp. tritici; (the causal agent of wheat leaf rust) and incubated in a saturated atmosphere at 20° C. for 24 h, and then moved to a growth chamber at 20° C. for 6 days, after which time visual disease ratings were made.
as §2

[2] = tested on: Stagonospora nodorum (also known as Septoria nodorum); experiment: Test B: preventive spray on wheat seedlings, Stagonospora nodorum (wheat glume blotch), visual disease rating
Description: as §1
The test suspension was sprayed to the point of run-off on wheat seedlings. The following day the seedlings were inoculated with a spore suspension of Stagonospora nodorum (also known as Septoria nodorum; the causal agent of wheat glume blotch) and incubated in a saturated atmosphere at 20° C. for 48 h, and then moved to a growth chamber at 20° C. for 6 days, after which time visual disease ratings were made.
as §2

[3] = tested on: Erysiphe graminis f. sp. tritici; experiment: Test E: preventive spray on wheat seedlings, Erysiphe graminis f. sp. tritici (wheat powdery mildew), visual disease rating
Description: as §1
The test suspension was sprayed to the point of run-off on wheat seedlings. The following day the seedlings were inoculated with a spore dust of Erysiphe graminis f. sp. tritici, (the causal agent of wheat powdery mildew) and incubated in a growth chamber at 20° C. for 8 days, after which time visual disease ratings were made.
as §2

[4] = 100 = 100% disease control, 0 = no control, unmarked values
[5] = values marked with asterisk (*), meaning not given

Structure (SMILES) | pest or weed control at 40 µg/mL, 160 g/ha (Botrytis cinerea) [%] | Test C disease control rating (Septoria tritici; [4]) [%] | Test D disease control rating [1, 4] [%] | Test B disease control rating [2, 4] [%] | Test E disease control rating [3, 4] [%] | Test C disease control rating (Septoria tritici; [5]) | Test D disease control rating [1, 5] | Test E disease control rating [3, 5] | Test B disease control rating [2, 5]
O=C(Nc1ccccc1-c1cnc(-n2ccc(C(F)(F)F)n2)cn1)c1ncccc1C(F)(F)F [Compound 3, 3-(trifluoromethyl)-N-[2-[5-[3-(trifluoromethyl)-1H-pyrazol-1-yl]-2-pyrazinyl]phenyl]-2-pyridinecarboxamide] | 0 | – | – | – | – | – | – | – | –
O=C(Nc1ccccc1-c1cnc(-n2ccc(C(F)(F)F)n2)c(Cl)c1)c1ncccc1C(F)(F)F [Compound 34, N-[2-[5-chloro-6-[3-(trifluoromethyl)-1H-pyrazol-1-yl]-3-pyridinyl]phenyl]-3-(trifluoromethyl)-2-pyridinecarboxamide] | 96 | – | – | – | – | – | – | – | –
O=C(Nc1ccccc1-c1ccc(-n2cc(Br)cn2)nc1)c1ncccc1C(F)(F)F [compound 14] | – | 100 | 99 | 100 | 98 | – | – | – | –
Cn1cc(C(=O)Nc2ccccc2-c2ccc(-n3cccn3)nc2)c(C(F)F)n1 [compound 15] | – | 100 | 100 | 99 | 97 | – | – | – | –
COc1cccc(-c2cnn(-c3ccc(-c4ccccc4NC(=O)c4ncccc4C(F)(F)F)cn3)c2)c1 [compound 16] | – | 100 | 99 | 100 | 69 | – | – | – | –
COc1cccc(C2CC(c3ccc(-c4ccccc4NC(=O)c4cn(C)nc4C(F)F)cn3)=NO2)c1 (centres unmarked) [compound 102] | – | 97 | 100 | 99 | 73 | – | – | – | –
CC1=C(C(=O)Nc2ccccc2-c2cnc(-n3ccc(C(F)(F)F)n3)c(F)c2)SCCO1 [compound 113] | – | 77 | 97 | 0 | 0 | – | – | – | –
CC1=C(C(=O)Nc2ccccc2-c2cnc(-n3ccc(C(F)(F)F)n3)c(F)c2)S(=O)(=O)CCO1 [compound 114] | – | 84 | 100 | 0 | 64 | – | – | – | –
O=C(Nc1ccccc1-c1cnc(-n2ccc(C(F)(F)F)n2)c(F)c1)c1nccnc1C(F)(F)F [compound 115] | – | 98 | 100 | 100 | 100 | – | – | – | –
O=C(Nc1ccccc1-c1cnc(-n2ccc(C(F)(F)F)n2)c(F)c1)c1ncsc1C(F)(F)F [compound 126] | – | 99 | 100 | 99 | 99 | – | – | – | –
Cn1cc(C(=O)Nc2ccccc2-c2cnc(-n3ccc(C(F)(F)F)n3)c(C#N)c2)c(C(F)(F)F)n1 [compound 127] | – | – | – | 0 | – | 62* % | 100* % | 40* % | –
COc1cccc(C2CC(c3ccc(-c4ccccc4NC(=O)c4ncccc4C(F)(F)F)cn3)=NN2C)c1 (centres unmarked) [compound 130] | – | 89 | 97 | 11 | 69 | – | – | – | –
O=C(Nc1ccccc1-c1cnc(-n2ccc(C(F)(F)F)n2)c(Cl)c1)c1ccccc1C(F)F [compound 132] | – | 99 | 99 | 0 | 98 | – | – | – | –
O=C(Nc1ccccc1-c1cnc(-n2ccc(C(F)(F)F)n2)c(F)c1)c1nccnc1Cl [compound 149] | – | 97 | 99 | 95 | 98 | – | – | – | –
Cn1cc(C(=O)Nc2ccccc2-c2cnc(-n3ccc(C(F)(F)F)n3)c(F)c2)c(C(F)(F)F)n1 [compound 150] | – | 98 | 100 | 92 | 99 | – | – | – | –
Cc1nc(C(F)(F)F)c(C(=O)Nc2ccccc2-c2cnc(-n3ccc(C(F)(F)F)n3)c(F)c2)s1 [compound 151] | – | 98 | 100 | 0 | 98 | – | – | – | –
Cc1ccsc1C(=O)Nc1ccccc1-c1cnc(-n2ccc(C(F)(F)F)n2)c(F)c1 [compound 152] | – | 99 | 100 | 99 | 99 | – | – | – | –
Cc1ccsc1C(=O)Nc1ccccc1-c1cnc(-n2ccc(C(F)(F)F)n2)c(C#N)c1 [compound 154] | – | – | – | – | – | 94* % | 100* % | 0* % | 59* %
O=C(Nc1ccccc1-c1cnc(-n2ccc(C(F)F)n2)c(F)c1)c1ncccc1C(F)(F)F [compound 161] | – | 95 | 100 | 100 | 99 | – | – | – | –
Cn1cc(C(=O)Nc2ccccc2-c2cnc(-n3ccc(C(F)F)n3)c(F)c2)c(C(F)F)n1 [compound 162] | – | 98 | 100 | 68 | 99 | – | – | – | –
Cc1sccc1C(=O)Nc1ccccc1-c1cnc(-n2ccc(C(F)(F)F)n2)c(F)c1 [compound 163] | – | 97 | 100 | 79 | 96 | – | – | – | –
O=C(Nc1ccccc1-c1cnc(-n2ccc(C(F)(F)F)n2)c(Cl)c1)c1scnc1C(F)(F)F [compound 165] | – | – | – | 0 | – | 99* % | 98* % | 87* % | –
O=C(Nc1ccccc1-c1cnc(-n2ccc(C(F)(F)F)n2)c(Cl)c1)c1sccc1C(F)(F)F [compound 167] | – | – | – | – | – | 100* % | 100* % | 94* % | 98* %
O=C(Nc1ccccc1-c1cnc(-n2ccc(C(F)(F)F)n2)c(Cl)c1)c1sccc1Cl [compound 168] | – | – | – | – | – | 95* % | 99* % | 64* % | 0* %
Cc1scnc1C(=O)Nc1ccccc1-c1cnc(-n2ccc(C(F)(F)F)n2)c(Cl)c1 [compound 170] | – | – | – | – | – | 74* % | 0* % | 0* % | 50* %
O=C(Nc1ccccc1-c1cnc(-n2ccc(C(F)(F)F)n2)c(Cl)c1)c1sccc1F [compound 176] | – | – | – | – | – | 93* % | 0* % | 0* % | 0* %
